Several values for one entry are separate records, joined by “and”; a condition that tells them apart may be missing. Identical values can stand only once. Bridge positions count the residues as written; N and C are the ends. Ends that are not written are not given here. Peptide text beside a SMILES is read from it.

The target in assay [1] is T1, IDE (Homo sapiens, UniProt P14735).
T1 construct: made in house; host or cells: bacteria
T1 sequence (P14735 1-1019): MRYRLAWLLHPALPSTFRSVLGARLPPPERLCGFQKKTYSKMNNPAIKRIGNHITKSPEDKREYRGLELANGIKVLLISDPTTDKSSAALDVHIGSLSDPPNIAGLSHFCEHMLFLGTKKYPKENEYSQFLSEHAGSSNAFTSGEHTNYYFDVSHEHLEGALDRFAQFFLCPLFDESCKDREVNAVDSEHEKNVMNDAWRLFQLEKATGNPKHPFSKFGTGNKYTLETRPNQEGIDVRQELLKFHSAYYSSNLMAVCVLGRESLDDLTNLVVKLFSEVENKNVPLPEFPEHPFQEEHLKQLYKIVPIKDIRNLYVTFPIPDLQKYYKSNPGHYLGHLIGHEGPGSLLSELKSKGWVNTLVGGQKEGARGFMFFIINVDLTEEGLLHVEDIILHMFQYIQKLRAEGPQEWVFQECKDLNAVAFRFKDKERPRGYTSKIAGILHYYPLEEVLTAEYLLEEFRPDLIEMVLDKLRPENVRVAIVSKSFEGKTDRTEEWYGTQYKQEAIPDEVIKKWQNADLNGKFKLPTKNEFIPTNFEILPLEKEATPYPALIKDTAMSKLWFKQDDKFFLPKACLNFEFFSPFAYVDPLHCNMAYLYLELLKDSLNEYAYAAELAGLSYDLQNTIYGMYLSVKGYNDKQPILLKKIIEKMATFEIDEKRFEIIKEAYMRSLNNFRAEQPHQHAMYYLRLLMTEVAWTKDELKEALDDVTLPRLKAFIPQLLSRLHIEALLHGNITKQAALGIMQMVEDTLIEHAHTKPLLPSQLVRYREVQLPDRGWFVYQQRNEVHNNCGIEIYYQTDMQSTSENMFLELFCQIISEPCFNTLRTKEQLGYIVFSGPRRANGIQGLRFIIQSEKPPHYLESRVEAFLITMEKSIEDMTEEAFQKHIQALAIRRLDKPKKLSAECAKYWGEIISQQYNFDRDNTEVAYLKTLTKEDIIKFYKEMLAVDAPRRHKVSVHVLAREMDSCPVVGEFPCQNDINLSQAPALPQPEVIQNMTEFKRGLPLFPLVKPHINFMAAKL
Put plainly: biochemical. As to conditions: for IC50 <500 uM?: initial test at 500 uM. Summed up: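 Recombinant human IDE (1 nM, bacterially expressed) degraded FRET1 substrate (5 μM), fluoresceinated biotinylated amyloid β (500 nM) or human insulin (50 nM) in PBS with 0.05% BSA. Peptides tested included N-acetylated and C-amidated variants.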

Assay [2] has as its target T1, IDE. Kind of assay: Vulnerability of peptides to degradation by IDE: 0 vs 4 h pre-incubation, then FRET1 assay. It counts as biochemical. Particulars: for remaining activity at 0.12207 µM / remaining activity at 0.488281 µM / remaining activity at 1.95312 µM / remaining activity at 7.8125 µM / remaining activity at 31.25 µM / remaining activity at 125 µM / remaining activity at 500 µM: 4 h, relative to DMSO-only controls, read-out: Percent Activity (normalized initial velocity of FRET1 hydrolysis); for remaining activity at 0.12207 µM: Cmpd 0.12207 uM; for remaining activity at 0.488281 µM: Cmpd 0.488281 uM; for remaining activity at 1.95312 µM: Cmpd 1.95312 uM; for remaining activity at 7.8125 µM: Cmpd 7.8125 uM; for remaining activity at 31.25 µM: Cmpd 31.25 uM; for remaining activity at 125 µM: Cmpd 125 uM; for remaining activity at 500 µM: Cmpd 500 uM; for IC50: FRET1 assay. Summed up: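 Recombinant human IDE (1 nM, bacterially purified) degrading FRET1 substrate Mca-peptide-Dnp (5 μM) in PBS with 0.05% BSA; peptides pre-incubated 0 or 4 h before assay. Fluorescence monitored as degradation read-out.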

The mark [3] stands for this setting: dose-response, individual runs, read-out: Percent Activity (normalized source data).
Where [4] appears, read: dose-response, 125 uM, individual runs, read-out: Percent Activity (normalized source data).
The mark [5] stands for this setting: initial test, percent of initial velocity relative to DMSO-only controls, N 4, read-out: Percent activity at 500 uM, Mean.
The mark [6] stands for this setting: judged as IC50 <100 uM?, N 4, read-out: Percent activity at 500 uM, Mean.
Where [7] appears, read: 4-hr incubation, individual runs.

For `CC(C)C[C@H](NC(=O)[C@H](CO)NC(=O)[C@@H](N)CCC(N)=O)C(=O)N1CCC[C@H]1C(=O)N[C@@H](Cc1c[nH]c2ccccc12)C(=O)N[C@H]1CSSC[C@@H](C(=O)N[C@H](C(=O)N[C@H](C(N)=O)[C@@H](C)O)C(C)C)NC(=O)[C@H](Cc2c[nH]cn2)NC(=O)[C@@H]2CCCN2C(=O)[C@H](Cc2ccc(O)cc2)NC1=O` [P12-3A] (H-QSLPWCYPHCVT-NH2; disulfide 6-10 (inferred)), the remaining activity at 0.0005 µM at IDE [1] (FRET1, P12-3A 0.0005 uM, Replicates 4-6, read-out: Percent Activity (normalized source data)) worked out at 109%. For the same molecule, the remaining activity at 0.0016 µM at IDE [1] (FRET1, P12-3A 0.0016 uM, Replicates 4-6, read-out: Percent Activity (normalized source data)) was found to be 115%. At IDE [1] (FRET1, P12-3A 0.005 uM, Replicates 4-6, read-out: Percent Activity (normalized source data)), the remaining activity at 0.005 µM worked out at 119%. In addition, the remaining activity at 0.05 µM on IDE [1] (FRET1, P12-3A 0.050 uM, Replicates 4-6, read-out: Percent Activity (normalized source data)) stood at 134%. For the same molecule, the remaining activity at 0.12 µM at IDE [1] (FRET1, P12-3A 0.12 uM, Replicates 1-3, read-out: Percent Activity (normalized source data)) is 81.6%. In addition, the remaining activity at 0.24 µM at IDE [1] (FRET1, P12-3A 0.24 uM, Replicates 1-3, read-out: Percent Activity (normalized source data)) worked out at 82.7%. For the same molecule, the remaining activity at 0.49 µM on IDE [1] (FRET1, P12-3A 0.49 uM, Replicates 1-3, read-out: Percent Activity (normalized source data)) turned out to be 73.4%. Also, the remaining activity at 0.98 µM on IDE [1] (FRET1, P12-3A 0.98 uM, Replicates 1-3, read-out: Percent Activity (normalized source data)) was 62.8%. For the same molecule, on IDE [1] (FRET1, P12-3A 3.91 uM, Replicates 1-3, read-out: Percent Activity (normalized source data)), the remaining activity at 3.91 µM stood at 45.2%. Moreover, the remaining activity at 7.81 µM on IDE [1] (FRET1, P12-3A 7.81 uM, Replicates 1-3, read-out: Percent Activity (normalized source data)) is 33%. For the same molecule, the remaining activity at 15.6 µM at IDE [1] (FRET1, P12-3A 15.6 uM, Replicates 1-3, read-out: Percent Activity (normalized source data)) came to 38.9%. Moreover, the remaining activity at 16 µM at IDE [1] (FRET1, P12-3A 16 uM, Replicates 4-6, read-out: Percent Activity (normalized source data)) was 45.2%. Moreover, on IDE [1] (FRET1, P12-3A 31.2 uM, Replicates 1-3, read-out: Percent Activity (normalized source data)), the remaining activity at 31.2 µM was 30.6%. The remaining activity at 50 µM at IDE [1] (FRET1, P12-3A 50 uM, Replicates 4-6, read-out: Percent Activity (normalized source data)) was found to be 31.6%. For the same molecule, the remaining activity at 62.5 µM on IDE [1] (FRET1, P12-3A 62.5 uM, Replicates 1-3, read-out: Percent Activity (normalized source data)) was 23.7%. In addition, the remaining activity at 125 µM on IDE [1] (FRET1, P12-3A 125 uM, Replicates 1-3, read-out: Percent Activity (normalized source data)) is 20.1%. Besides, the remaining activity at 158 µM on IDE [1] (FRET1, P12-3A 158 uM, Replicates 4-6, read-out: Percent Activity (normalized source data)) stood at 23.8%. Also, the remaining activity at 250 µM on IDE [1] (FRET1, P12-3A 250 uM, Replicates 1-3, read-out: Percent Activity (normalized source data)) is 10.4%. Further, at IDE [1] (setting [3]), the remaining activity at 0.12207 µM was determined as 87.1%, the remaining activity at 0.488281 µM was 82.8%, the remaining activity at 1.95312 µM worked out at 78.7% and the remaining activity at 7.8125 µM amounted to 74%. Moreover, the remaining activity at 31.25 µM on IDE [1] (setting [3]) turned out to be 40.2%. The remaining activity at 125 µM at IDE [1] (setting [4]) was 9.83%. Also, the “IC50 <500 uM?” value against IDE [1] is reported as “YES”. Further, on IDE [1] (setting [5]), the remaining activity at 500 µM was 3.6%. Moreover, the remaining activity at 500 µM on IDE [1] (setting [6]) came to 17.1%. On IDE [2] (setting [7]), the remaining activity at 0.12207 µM was 101%, the remaining activity at 0.488281 µM came out at 96.2%, the remaining activity at 1.95312 µM amounted to 95.5% and the remaining activity at 7.8125 µM turned out to be 93.1%. Further, at IDE [2] (setting [7]), the remaining activity at 31.25 µM amounted to 87.4%, the remaining activity at 125 µM came to 7.45% and the remaining activity at 500 µM amounted to 0.698%.
Consider `CC(C)C[C@H](NC(=O)[C@H](CO)NC(=O)[C@@H](N)CCC(N)=O)C(=O)N1CCC[C@H]1C(=O)N[C@@H](Cc1c[nH]c2ccccc12)C(=O)N[C@H]1CSSC[C@@H](C(=O)N[C@H](C(=O)N[C@H](C(=O)O)[C@@H](C)O)C(C)C)NC(=O)[C@H](Cc2c[nH]cn2)NC(=O)[C@@H]2CCCN2C(=O)[C@H](Cc2ccc(O)cc2)NC1=O` [P12-3] (H-QSLPWCYPHCVT-OH; disulfide 6-10 (inferred)), for which, on IDE [1] (setting [3]), the remaining activity at 0.12207 µM stood at 91.1%, the remaining activity at 0.488281 µM came out at 84.5%, the remaining activity at 1.95312 µM came to 84.4% and the remaining activity at 7.8125 µM is 65.6%. Further, the remaining activity at 31.25 µM at IDE [1] (setting [3]) turned out to be 34.6%. Moreover, the remaining activity at 125 µM on IDE [1] (setting [4]) amounted to 11%. Also, the “IC50 <500 uM?” value at IDE [1] is listed as “YES”. In addition, the remaining activity at 500 µM on IDE [1] (setting [5]) is 2%. In addition, the remaining activity at 500 µM on IDE [1] (setting [6]) is 13.9%. Besides, on IDE [2] (setting [7]), the remaining activity at 0.12207 µM was 106%, the remaining activity at 0.488281 µM was 99.5%, the remaining activity at 1.95312 µM came out at 95.9% and the remaining activity at 7.8125 µM was determined as 104%. On IDE [2] (setting [7]), the remaining activity at 31.25 µM was 70.9%, the remaining activity at 125 µM was determined as 8.98% and the remaining activity at 500 µM worked out at 1.55%.
In the case of QSLPWCYP-NH2 [P12-3B], the Ki (as a rule, a dissociation constant, usually derived from enzyme kinetics or from competition with a known ligand) is 39.4 µM on IDE [1] (Cheng-Prusoff, KM 10 uM, substrate concentration 5 uM, read-out: Ki values, Mean); 39 ± 20 µM at IDE [1] (substrate FRET1 5 μM, Ki from IC50 with the Cheng-Prusoff equation, read-out: Ki FRET1); 30.6 µM on IDE [2] (4-hr incubation, Cheng-Prusoff from IC50, FRET1 KM 10 uM, substrate 5 uM). Further, the IC50 is 25.6 µM and 32.5 µM on IDE [1] (dose-response, FRET1, individual runs, read-out: IC50s, Run 1-6); 59.2 µM at IDE [1] (dose-response, FRET1, read-out: IC50s, Mean); 119 µM at IDE [2] (0-hr incubation (immediately after combining enzyme and peptide), individual runs, read-out: IC50s); 59.2 µM on IDE [2] (0-hr incubation, mean of runs, read-out: IC50s, Mean); 45.1 µM and 46.8 µM at IDE [2] (4-hr incubation, individual replicates, read-out: IC50s); 45.9 µM on IDE [2] (4-hr incubation, mean of 2 replicates, read-out: IC50s, Mean). For the same molecule, the “IC50 <500 uM?” value against IDE [1] is recorded as “YES”. Also, the remaining activity at 500 µM on IDE [1] (initial test, percent of initial velocity relative to DMSO-only controls, individual replicates, read-out: Percent activity at 500 uM, Replicate 1-4) was 13.7%; on IDE [1] (judged as IC50 <100 uM?, individual replicates, read-out: Percent activity at 500 uM, Replicate 1-4) it was 27.1%; at IDE [2] (setting [7]), 11.2%. For the same molecule, at IDE [2] (setting [7]), the remaining activity at 0.12207 µM was determined as 101%. The remaining activity at 0.488281 µM on IDE [2] (setting [7]) amounted to 96.9%. The remaining activity at 1.95312 µM at IDE [2] (setting [7]) was found to be 101%. In addition, the remaining activity at 7.8125 µM on IDE [2] (setting [7]) was 97%. Besides, the remaining activity at 31.25 µM at IDE [2] (setting [7]) was found to be 80.9%. Moreover, the remaining activity at 125 µM on IDE [2] (setting [7]) is 60.2%.

The record behind these values is article PMC5814047, “Peptidic inhibitors of insulin-degrading enzyme with potential for dermatological applications discovered via phage display” (PLoS ONE, 2018).
